Literature values in publication PMC8146568, “Thermococcus bergensis sp. nov., a Novel Hyperthermophilic Starch-Degrading Archaeon” (Biology, 2021).
Like-named read-outs stand apart in the source and are kept apart here.

Tested on: T1, glyceraldehyde-3-phosphate ferredoxin oxidoreductase (GAPOR)
T1 construct: gene gor; native, purified from starch-grown culture of "strain 7324" (DSM 8774 mixed culture, formerly attributed to Archaeoglobus fulgidus); 66 kDa monomer; N-terminus MRFSVLKINLNEKKVX(X)EVFEREXV
Assay: benzyl viologen-dependent GAP oxidation, steady-state kinetics
Type: biochemical, Thermococcus bergensis
Conditions: pH 7.8, 50 °C, read-out: apparent Km

| Km (benzyl viologen as electron acceptor) | SMILES | Km (artificial electron acceptor, GAP as co-substrate) |
| --- | --- | --- |
|  | c1ccc(C[n+]2ccc(-c3cc[n+](Cc4ccccc4)cc3)cc2)cc1 [BV, benzyl viologen] | 4 mM |
| 0.005 mM | O=C[C@H](O)COP(=O)(O)O [GAP, glyceraldehyde-3-phosphate] |  |
